Test results published in patent publication US7601746B2 (Shionogi & Co., Ltd., priority 2003, dated 2009).

molecular target: T1, human TPO receptor (hTPOR) (Homo sapiens, UniProt P40238); assay: Thrombopoietic activity: proliferation of TPO dependent BaF/hTPOR cells (WST-1, absorbance at 450 nm); type: cell-based; details: 20 h + 4 h WST-1, ED50 = half concentration of the concentration showing the maximum thrombopoietic activity, Table 1
T1 construct: expressed in transfected cells; host or cells: BaF-B03 (murine IL-3 dependent cell line)
T1 sequence (P40238 26-635): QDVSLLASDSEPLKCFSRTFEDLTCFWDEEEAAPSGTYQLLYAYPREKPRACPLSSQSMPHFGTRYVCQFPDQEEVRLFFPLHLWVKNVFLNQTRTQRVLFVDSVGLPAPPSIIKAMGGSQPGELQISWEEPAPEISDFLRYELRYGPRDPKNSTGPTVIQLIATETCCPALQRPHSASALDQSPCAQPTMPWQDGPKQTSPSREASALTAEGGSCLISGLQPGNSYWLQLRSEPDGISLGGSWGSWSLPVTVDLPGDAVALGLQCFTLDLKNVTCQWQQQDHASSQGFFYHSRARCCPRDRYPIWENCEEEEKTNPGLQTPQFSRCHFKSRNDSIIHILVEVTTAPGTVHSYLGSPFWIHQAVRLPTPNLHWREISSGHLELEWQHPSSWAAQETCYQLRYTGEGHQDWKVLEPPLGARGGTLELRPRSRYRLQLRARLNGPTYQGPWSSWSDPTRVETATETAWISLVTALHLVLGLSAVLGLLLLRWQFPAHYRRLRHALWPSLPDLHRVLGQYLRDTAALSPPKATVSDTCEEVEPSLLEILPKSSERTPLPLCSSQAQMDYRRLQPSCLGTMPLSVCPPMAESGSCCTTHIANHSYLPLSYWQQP
Excerpt: The TPO dependent BaF/hTPOR cell line which was established by introducing human TPO receptor (hTPOR) into BaF-B03 cells according to Collins et al (J. Cell. Physiol., 137:293-298 (1988)) was used to test the thrombopoietic activity of the present compound. The DNA sequences and encoded peptide sequences for human hTPOR have been described by Vigon et al (Proc. Natl. Acad. Sci. USA, 89:5640-5644 (1992)). TPO dose not have any ability to support proliferation of interlukin-3 dependent parental cell line BaF-B03. BAF/hTPOR cells were maintained in RPMI medium and WEHI-3B conditioned medium as a source of murine interleukin-3 (IL-3). These cells were washed and resuspended in RPMI medium without a source of murine IL-3 and seeded into each well of 96-well microtiter plates at a density of 5×10^4 cells per well in the absence or presence of various concentration of hTPO or the present compound. After incubation at 37° C. for 20 hours in the 5% CO2 incubator, 10% WST-1 reagent (Takara Biomedicals, Japan) was added to each wells and the cells were further incubated for 4 hours. The absorbance at 450 nm was measured. Tables 1 and 2 exemplify the ED50 for tested compounds of the present invention, wherein the ED50 is the half concentration of the concentration showing the maximum thrombopoietic activity.

| Compound | EC50 [nM] |
| --- | --- |
| COc1c(COCCC(C)(C)C)cccc1-c1csc(NC(=O)c2cc(Cl)c(C=C(C)C(=O)O)c(Cl)c2)n1 (stereo in doubt) [Compound B1936, (Z)-3-(2,6-dichloro-4-{4-[3-(3,3-dimethylbutyloxymethyl)-2-methyloxyphenyl]thiazol-2-ylcarbamoyl}phenyl)-2-methylacrylic acid] | 17.1 |
| COC(=Cc1c(F)cc(C(=O)Nc2nc(-c3cccc(COCC(C)(C)C)c3OC)cs2)cc1F)C(=O)O (stereo in doubt) [Compound B2020, (E)-3-(4-{4-[3-(2,2-dimethylpropyloxymethyl)-2-methyloxyphenyl]thiazol-2-ylcarbamoyl}-2,6-difluorophenyl)-2-methyloxyacrylic acid] | 10.9 |
| CCCCCc1cccc2c1CCc1sc(NC(=O)c3cc(F)c(C=C(C)C(=O)O)c(F)c3)nc1-2 [Compound A2, 3-[2,6-difluoro-4-(4,5-dihydro-6-pentylnaphtho[1,2-d]thiazol-2-ylcabamoyl)phenyl]-2-methylacrylic acid] | 4 |
| CC(=Cc1c(F)cc(C(=O)Nc2nc3c(s2)CCc2c(CCC(C)(C)C)cccc2-3)cc1F)C(=O)O [Compound A3, 3-{2,6-difluoro-4-[4,5-dihydro-6-(3,3-dimethylbutyl)naphtho[1,2-d]thiazol-2-ylcabamoyl)phenyl]-2-methylacrylic acid] | 4 |
| CCCOCCCc1cccc2c1CCc1sc(NC(=O)c3cc(F)c(C=C(C)C(=O)O)c(F)c3)nc1-2 [Compound A9, 3-{2,6-difluoro-4-[4,5-dihydro-6-(3-n-propyloxypropyl)naphto[1,2-d]thiazol-2-ylcabamoyl]phenyl}-2-methylacrylic acid] | 3 |

The next compounds have a lower EC50 than those just listed; values first:

| EC50 [nM] | Compound |
| --- | --- |
| 0.57 | 3-[2,6-difluoro-4-(4-{2-fluoro-3-{1-(3-methylbutyloxypropyl)phenyl]thiazol-2-ylcarbamoyl}phenyl)-2-methylacrylic acid [Compound B18] |
| 2.9 | 3-{2,6-difluoro-4,5-dihydro-4-[6-(3-ethyloxypropyl)naphtho[1,2-d]thiazol-2-ylcabamoyl]phenyl}-2-methylacrylic acid [Compound A8] |
| 2.27 | CCCC(CCc1cccc2c1CCc1sc(NC(=O)c3cc(F)c(C=C(C)C(=O)O)c(F)c3)nc1-2)OC (stereo not shown) [Compound A1, 3-{2,6-difluoro-4-[4,5-dihydro-6-(3-methyloxyhexyl)naphtho[1,2-d]thiazol-2-ylcarbamoyl]phenyl}-2-methylacrylic acid] |
| 1.8 | COC(CCc1cccc2c1CCc1sc(NC(=O)c3cc(F)c(C=C(C)C(=O)O)c(F)c3)nc1-2)C(C)(C)C (stereo not shown) [Compound A4, 3-{2,6-difluoro-4-[4,5-dihydro-6-(3-methyloxy-4,4-dimethylpentyl)naphtho[1,2-d]thiazol-2-ylcabamoyl]phenyl}-2-methylacrylic acid] |
| 1.91 | CCCCOCCCc1cccc2c1CCc1sc(NC(=O)c3cc(F)c(C=C(C)C(=O)O)c(F)c3)nc1-2 [Compound A5, 3-{4-[6-(3-n-butyloxypropyl)-4,5-dihydronaphto[1,2-d]thiazol-2-ylcabamoyl]-2,6-difluorophenyl}-2-methylacrylic acid] |
| 1.04 | CC(=Cc1c(F)cc(C(=O)Nc2nc3c(s2)CCc2c(CCCOCC(C)(C)C)cccc2-3)cc1F)C(=O)O [Compound A6, 3-(2,6-difluoro-4-{4,5-dihydro-6-[3-(2,2-dimethylpropyloxy)propyl]naphtho[1,2-d]thiazol-2-ylcabamoyl}phenyl)-2-methylacrylic acid] |
| 2.26 | CC(=Cc1c(F)cc(C(=O)Nc2nc3c(s2)CCc2c(CCCOC(C)C)cccc2-3)cc1F)C(=O)O [Compound A7, 3-{2,6-difluoro-4-[4,5-dihydro-6-(3-isopropyloxypropyl)naphtho[1,2-d]thiazol-2-ylcabamoyl]phenyl}-2-methylacrylic acid] |
| 1.2 | CCOCCCc1cccc2c1CCc1sc(NC(=O)c3cc(Cl)c(C=C(C)C(=O)O)c(Cl)c3)nc1-2 [Compound A10, 3-{2,6-dichloro-4-[4,5-dihydro-6-(3-ethyloxypropyl)naphtho[1,2-d]thiazol-2-ylcabamoyl]phenyl}-2-methylacrylic acid] |
